The subject of the assay is VSVG-GFP trafficking in BSC1 cells. In kind it is cell-based, monkey.

SMILES strings stand for the structures. Entries after “also recorded” stand apart in the source; their conditions may differ.

As to `COc1ccc(CS[C@@H]2CC(=NOCc3ccccc3)C[C@H]3Oc4c(Br)c(OCC5CC5)cc5c4[C@]32C[C@@H](CO)NC5)cc1` [secramine], the “ability to block protein trafficking from the golgi apparatus to the plasma membrane” value is reported as “block protein trafficking from the golgi apparatus to the plasma membrane”, the “inhibition of VSVG-GFP movement from the golgi apparatus to the plasma membrane” value was “potent inhibitor of VSVG-GFP movement from the golgi apparatus to the plasma membrane; also recorded: Golgi to PM Blocker” and the “inhibition of the movement of a specific cellular protein from the golgi apparatus to the plasma membrane” value was “potent inhibitor of the movement of a specific cellular protein from the golgi apparatus to the plasma membrane”.
As to `COc1ccc2c3c1O[C@H]1C[C@@H](O)C=C[C@@]31CCN(C)C2` [galanthamine, reference compound], the “effect on the secretory pathway” value is recorded as “no observable effect on the secretory pathway”.
